The target of one assay is T1, c-kit mutant D816V (Homo sapiens, UniProt P10721, D816V/DEL694-753).
T1 construct: residues 551-934, kinase insertion domain residues 694-753 deleted; 6x-histidine (N); made in house; host or cells: E. coli Arctic Express (DE3) RIL (Stratagene)
Nature of the assay: c-Kit mutant D816V biochemical assay, AlphaScreen. Particulars: c-kit D816V biochemical inhibitory activity; read-out: Biochemical activity (IC50 μM) Kit D816V. An outline of the steps:
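Eight-point, threefold compound series incubated 30 min at room temperature with E. coli-produced D816V kinase, 10 μM ATP, Mg2+/Mn2+ HEPES buffer pH 7.2 and 5% DMSO. After EDTA stop, streptavidin and anti-phosphotyrosine (PY20) AlphaScreen beads gave the read-out, and IC50 was fitted from the concentration–signal curve.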

Another assay has as its target T2, c-kit kinase (Homo sapiens, UniProt P10721).
T2 construct: The c-kit (or kinase domain thereof) is an active kinase in AlphaScreen; poly-Histidine tag (in-house protein only) (cleaved yes); host or cells: E. coli BL21(DE3)RIL, co-expressed with PTP1B
Nature of the assay: c-Kit biochemical assay, AlphaScreen, 10 μM ATP. Particulars: c-kit biochemical inhibitory activity; read-out: Biochemical activity (IC50 μM) Kit. The method in brief:
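His-tagged c-Kit expressed in E. coli with co-expressed PTP1B (dephosphorylated), tag removed; 0.1 ng per reaction with biotinylated-peptide substrate in 50 mM HEPES pH 7.2, 5 mM MgCl2, 5 mM MnCl2, 5% DMSO, 10 μM ATP, 1 h at room temperature. Phosphorylation detected by AlphaScreen (streptavidin donor, PY20 acceptor beads); IC50 from 8-point 1:3 dilution series.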
In general terms: In Alpha technology, singlet oxygen from a donor bead excites a nearby acceptor bead.

Assay [1] has as its system cells with activating c-kit mutations in the catalytic region. Particulars: Ma et al., 2002; cited from earlier work.
Another assay addresses D816V KIT mutation (Homo sapiens, UniProt P10721, D816V). The note with it: Frost et al., 2002; cited from earlier work.

T2 sequence (P10721 26-976): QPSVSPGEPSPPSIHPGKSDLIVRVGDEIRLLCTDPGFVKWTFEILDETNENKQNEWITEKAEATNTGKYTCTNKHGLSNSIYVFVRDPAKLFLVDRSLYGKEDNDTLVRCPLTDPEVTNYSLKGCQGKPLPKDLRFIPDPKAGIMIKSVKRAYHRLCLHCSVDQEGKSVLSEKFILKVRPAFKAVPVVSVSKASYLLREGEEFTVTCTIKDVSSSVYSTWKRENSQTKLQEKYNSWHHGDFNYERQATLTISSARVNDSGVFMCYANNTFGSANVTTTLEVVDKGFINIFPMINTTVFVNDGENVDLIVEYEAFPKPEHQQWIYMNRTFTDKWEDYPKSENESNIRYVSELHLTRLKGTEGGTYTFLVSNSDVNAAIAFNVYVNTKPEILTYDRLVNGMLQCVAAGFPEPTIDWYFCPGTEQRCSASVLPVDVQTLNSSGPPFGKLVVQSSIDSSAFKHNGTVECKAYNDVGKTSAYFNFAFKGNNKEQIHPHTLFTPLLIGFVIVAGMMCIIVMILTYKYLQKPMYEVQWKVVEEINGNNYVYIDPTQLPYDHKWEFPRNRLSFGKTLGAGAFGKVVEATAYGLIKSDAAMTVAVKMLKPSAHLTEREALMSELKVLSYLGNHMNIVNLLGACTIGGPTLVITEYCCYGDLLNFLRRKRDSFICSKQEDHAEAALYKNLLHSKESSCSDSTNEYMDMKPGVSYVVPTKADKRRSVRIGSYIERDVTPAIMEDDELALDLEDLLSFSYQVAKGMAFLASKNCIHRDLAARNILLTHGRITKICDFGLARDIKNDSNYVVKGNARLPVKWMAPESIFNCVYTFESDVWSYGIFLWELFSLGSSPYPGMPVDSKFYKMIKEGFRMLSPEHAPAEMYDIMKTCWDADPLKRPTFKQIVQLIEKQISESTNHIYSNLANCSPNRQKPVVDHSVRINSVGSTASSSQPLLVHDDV
T1 sequence (P10721 with tags, fused parts or gaps DEL694-753/D816V): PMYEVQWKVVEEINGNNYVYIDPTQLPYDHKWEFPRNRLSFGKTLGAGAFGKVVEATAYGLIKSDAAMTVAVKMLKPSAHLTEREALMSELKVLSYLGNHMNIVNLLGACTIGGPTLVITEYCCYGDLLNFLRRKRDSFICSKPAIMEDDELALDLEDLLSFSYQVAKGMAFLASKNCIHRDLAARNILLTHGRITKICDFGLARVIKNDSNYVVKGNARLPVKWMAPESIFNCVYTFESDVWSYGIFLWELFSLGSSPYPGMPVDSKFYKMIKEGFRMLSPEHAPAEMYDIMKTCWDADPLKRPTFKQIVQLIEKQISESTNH
D816V KIT mutation, sequence (P10721 26-976 D816V): as the sequence (P10721 26-976) above, with D791V counted along it

What is called IC50 is the concentration that gives 50% inhibition. As for `C[C@H](NC(=O)N1CCN(c2ncnc3[nH]c(-c4cnn(C)c4)cc23)C[C@H]1C)c1ccc(F)cc1` [P-0725, (2R)-N-[(1S)-1-(4-fluorophenyl)ethyl]-2-methyl-4-[6-(1-methylpyrazol-4-yl)-7H-pyrrolo[2,3-d]pyrimidin-4-yl]piperazine-1-carboxamide], the half-inhibitory concentration (IC50) on c-kit mutant D816V and at c-kit kinase was 0.0001 to 1 µM in each case.
In the case of `CCc1ccc(S(=O)(=O)NC2CCN(c3ncnc4[nH]c(-c5cn(C)nc5C)cc34)CC2)cc1` [P-0726, N-[1-[6-(1,3-dimethylpyrazol-4-yl)-7H-pyrrolo[2,3-d]pyrimidin-4-yl]-4-piperidyl]-4-ethyl-benzenesulfonamide], the IC50 on c-kit mutant D816V and on c-kit kinase was 0.0001 to 1 µM in each case.
`CCc1ccc(S(=O)(=O)NC2CCN(c3ncnc4[nH]c(-c5ccnc(OC)c5)cc34)CC2)cc1` [P-0727, 4-ethyl-N-[1-[6-(2-methoxy-4-pyridyl)-7H-pyrrolo[2,3-d]pyrimidin-4-yl]-4-piperidyl]benzenesulfonamide]: the IC50 on c-kit mutant D816V and at c-kit kinase was 0.0001 to 1 µM in each case.
On to `Cc1cc2c(N3CCC(NS(=O)(=O)c4ccc(Cl)cc4)CC3)ncnc2[nH]1` [P-0728, 4-chloro-N-[1-(6-methyl-7H-pyrrolo[2,3-d]pyrimidin-4-yl)-4-piperidyl]benzenesulfonamide], for which the IC50 at c-kit mutant D816V and at c-kit kinase was 0.0001 to 1 µM each time.
On to `Cc1cc2c(C3=CCC(NS(=O)(=O)c4ccc(Cl)cc4)CC3)ncnc2[nH]1` (centres unmarked) [P-0729, 4-chloro-N-[4-(6-methyl-7H-pyrrolo[2,3-d]pyrimidin-4-yl)cyclohex-3-en-1-yl]benzenesulfonamide], for which the IC50 on c-kit mutant D816V and on c-kit kinase was 0.0001 to 1 µM each time.
On to `CCc1ccc(S(=O)(=O)NC2CCN(c3ncnc4[nH]c(C)cc34)CC2)s1` [P-0730, 5-ethyl-N-[1-(6-methyl-7H-pyrrolo[2,3-d]pyrimidin-4-yl)-4-piperidyl]thiophene-2-sulfonamide], for which the concentration for half-maximal inhibition (IC50) at c-kit mutant D816V and at c-kit kinase was 0.0001 to 1 µM in each case.
For the compound `Cc1ccc(NC(=O)c2ccc(CN3CCN(C)CC3)cc2)cc1Nc1nccc(-c2cccnc2)n1` [STI571], in assay [1], the “inhibition of cells with c-kit mutations in the catalytic region” value was “did not inhibit”.
On to `Cc1ccc(NC(=O)c2ccc(CN3CCN(C)CC3)cc2)cc1Nc1nccc(-c2cccnc2)n1` [imatinib], for which the “sensitivity of D816V KIT mutation” value at D816V KIT mutation was “resistant”.

(Values after patent US10227357B2, “Compounds and methods for kinase modulation, and indications therefor” (Plexxikon Inc., priority 2012, dated 2019).)
